Results from patent US20080085338A1, “Pet Food” (priority 2005, published 2008).

What was measured:
[1] = 28-day feeding study in cats, antioxidant status; type: in vivo; conditions: dry cat food with 227 mg/kg of EGCG, 28 days, compared with control group
Description: Periodontopathic conditions are the most common disease in dogs and cats. Especially in cats, prophylaxis is usually limited to professional dental cleaning under anaesthesia. Special diets which reduce plaque and calculus accumulation have been formulated to extend the period of time between professional dental cleanings. The study was conducted to determine the effect of EGCG in a regular dry diet on the oral health of cats. In addition, the in vitro antibacterial activity of the substance and its effect on the antioxidant status of cats were evaluated. The substance under investigation was sprayed on a standard dry cat food. The supplemented diet contained 227 mg/kg of EGCG. 18 cats were made available for the feeding study, being assigned either to a control group or a study group, each group containing 9 cats. At the beginning of the trial, which was conducted over a period of 28 days, the oral health status of the cats was examined using various indices and tests, and samples from the oral cavity were obtained for bacteriological analysis. In addition, blood samples were taken to determine the antioxidant status of the animal. The examinations were followed by a coronal cleaning (scaling and polishing) to ensure that the study period began with no plaque or calculus present on tooth surfaces (“clean tooth” model). […]

[2] = tested on: bacteria taken from the feline oral cavity; test: in vitro antibacterial activity; type: cell-based
Description: Periodontopathic conditions are the most common disease in dogs and cats. Especially in cats, prophylaxis is usually limited to professional dental cleaning under anaesthesia. Special diets which reduce plaque and calculus accumulation have been formulated to extend the period of time between professional dental cleanings. The study was conducted to determine the effect of EGCG in a regular dry diet on the oral health of cats. In addition, the in vitro antibacterial activity of the substance and its effect on the antioxidant status of cats were evaluated. […] With a view to achieving better in vivo results, a change in the dosage, and possibly also a change in the mode of administration, can be considered. Further, the active ingredient can be administered in higher concentration, or in such a way as to prolong the time of its contact with the oral cavity. […] This was investigated as a secondary target variable.

O=C(O[C@@H]1Cc2c(O)cc(O)cc2O[C@@H]1c1cc(O)c(O)c(O)c1)c1cc(O)c(O)c(O)c1 [Epigallocatechingallate]
effect on the antioxidant status of the cats [1]: positive effect on the antioxidant status of the cat
inhibition of growth of bacteria taken from the feline oral cavity [2]: able to inhibit the growth bacteria taken from the feline oral cavity in vitro
